Format in all cases: functional
For experiment [1], the system named is Staphylococcus epidermidis. In words: Antibacterial activity against Staphylococcus epidermidis ATCC 12228 assessed as inhibition of visible bacterial growth incubated for 18 hrs by CLSI protocol based assay.
A further experiment has as its system Listeria monocytogenes. In words: Antibacterial activity against Listeria monocytogenes ATCC19111 assessed as inhibition of visible bacterial growth incubated for 18 hrs by CLSI protocol based assay.
For experiment [2], the system named is Mycolicibacterium smegmatis. Nature of the experiment: Antibacterial activity against Mycobacterium smegmatis ATCC 607 assessed as inhibition of visible bacterial growth incubated for 48 hrs by CLSI protocol based assay.
In a further experiment the test system is Bacillus cereus. In words: Antibacterial activity against Bacillus cereus ATCC 11778 assessed as inhibition of visible bacterial growth incubated for 18 hrs by CLSI protocol based assay.
For another experiment, the system named is Micrococcus luteus. Nature of the experiment: Antibacterial activity against Micrococcus luteus ATCC 9341 assessed as inhibition of visible bacterial growth incubated for 18 hrs by CLSI protocol based assay.
Experiment [3] relates to Staphylococcus aureus. In words: Antibacterial activity against methicillin-resistant Staphylococcus aureus clinical isolate 3B assessed as inhibition of visible bacterial growth incubated for 18 hrs by CLSI protocol based assay.
Experiment [4] has as its system Staphylococcus aureus. Nature of the experiment: Antibacterial activity against Staphylococcus aureus ATCC 9144 assessed as inhibition of visible bacterial growth incubated for 18 hrs by CLSI protocol based assay.
A further experiment deals with Pseudomonas aeruginosa. Nature of the experiment: Antibacterial activity against Pseudomonas aeruginosa ATCC 9027 assessed as inhibition of visible bacterial growth incubated for 18 hrs by CLSI protocol based assay.
For another experiment, the system named is Bacillus subtilis. In words: Antibacterial activity against Bacillus subtilis ATCC 6633 assessed as inhibition of visible bacterial growth incubated for 18 hrs by CLSI protocol based assay.
The test system of experiment [5] is Staphylococcus aureus. In words: Antibacterial activity against methicillin-resistant Staphylococcus aureus clinical isolate 9B assessed as inhibition of visible bacterial growth incubated for 18 hrs by CLSI protocol based assay.
The test system of experiment [6] is Staphylococcus aureus. Nature of the experiment: Antibacterial activity against methicillin-resistant Staphylococcus aureus clinical isolate 6B assessed as inhibition of visible bacterial growth incubated for 18 hrs by CLSI protocol based assay.
Experiment [7] has as its system Staphylococcus aureus. Nature of the experiment: Antibacterial activity against methicillin-resistant Staphylococcus aureus clinical isolate 10B assessed as inhibition of visible bacterial growth incubated for 18 hrs by CLSI protocol based assay.
In the next experiment the test system is Escherichia coli. Nature of the experiment: Antibacterial activity against Escherichia coli ATCC 8739 assessed as inhibition of visible bacterial growth incubated for 18 hrs by CLSI protocol based assay.

In brackets after ≈: the same amount, converted by molar mass.

As a reminder, the MIC is the smallest concentration in the dilution series that meets the test's criterion for growth inhibition.

In the case of `C[C@H]1O[C@@H]2O[C@@H]3C4C(=O)c5cccc(O)c5C(=O)C4O[C@]3(C)[C@@]21O` (stereo partly specified), the minimal inhibitory concentration (MIC) in [1] was determined as 2 µg/mL (≈ 6.02 µM); with Listeria monocytogenes it was 2 µg/mL (≈ 6.02 µM); in experiment [2] it was 64 µg/mL (≈ 193 µM); with Bacillus cereus, 8 µg/mL (≈ 24.1 µM); in the experiment on Micrococcus luteus, 8 µg/mL (≈ 24.1 µM); in the experiment with Staphylococcus aureus [3], 4 µg/mL (≈ 12 µM). The MIC in the experiment on Staphylococcus aureus [4] was 2 µg/mL (≈ 6.02 µM); with Pseudomonas aeruginosa, more than 128 µg/mL; in the experiment on Bacillus subtilis, 4 µg/mL (≈ 12 µM); in the experiment with Staphylococcus aureus [5], 4 µg/mL (≈ 12 µM); in the experiment on Staphylococcus aureus [6], 4 µg/mL (≈ 12 µM); in the experiment on Staphylococcus aureus [7], 4 µg/mL (≈ 12 µM). Further, the minimum inhibitory concentration (MIC) in the experiment with Escherichia coli was more than 128 µg/mL.

For `CC(C)Cc1nc([C@H](C)C(=O)O)c(C(C)C)n(O)c1=O`, the minimum inhibitory concentration (MIC) in experiment [1] was 64 µg/mL (≈ 227 µM); in the experiment on Listeria monocytogenes, 128 µg/mL (≈ 453 µM); in experiment [2] it was more than 128 µg/mL; in the experiment with Bacillus cereus it was 128 µg/mL (≈ 453 µM); with Micrococcus luteus it was 64 µg/mL (≈ 227 µM); in the experiment on Staphylococcus aureus [3], 128 µg/mL (≈ 453 µM). In addition, the MIC was 128 µg/mL (≈ 453 µM) in the experiment on Staphylococcus aureus [4]; more than 128 µg/mL in the experiment with Pseudomonas aeruginosa; 128 µg/mL (≈ 453 µM) in the experiment with Bacillus subtilis; 128 µg/mL (≈ 453 µM) with Staphylococcus aureus [5]; 128 µg/mL (≈ 453 µM) in the experiment on Staphylococcus aureus [6]; 128 µg/mL (≈ 453 µM) with Staphylococcus aureus [7]. In the experiment on Escherichia coli, the minimum inhibitory concentration (MIC) was more than 128 µg/mL.

Turning to `C[C@H]1O[C@]12[C@@H](O)O[C@H]1[C@]2(C)O[C@]2(O)C(=O)c3c(O)cccc3C(=O)[C@@]12O`, the MIC was 64 µg/mL (≈ 176 µM) in experiment [1]; 128 µg/mL (≈ 351 µM) in the experiment on Listeria monocytogenes; more than 128 µg/mL in [2]; more than 128 µg/mL in the experiment with Bacillus cereus; more than 128 µg/mL in the experiment on Micrococcus luteus; more than 128 µg/mL with Staphylococcus aureus [3]. The minimum inhibitory concentration (MIC) in the experiment on Staphylococcus aureus [4] was 128 µg/mL (≈ 351 µM); in the experiment on Pseudomonas aeruginosa, more than 128 µg/mL; with Bacillus subtilis, more than 128 µg/mL; in the experiment on Staphylococcus aureus [5] it was more than 128 µg/mL; in the experiment with Staphylococcus aureus [6], more than 128 µg/mL; in the experiment on Staphylococcus aureus [7], 128 µg/mL (≈ 351 µM). Moreover, the minimal inhibitory concentration (MIC) with Escherichia coli is more than 128 µg/mL.

In the case of `C[C@H]1O[C@@H]2C3=C(O[C@]2(C)[C@@]1(O)C=O)C(=O)c1c(O)cccc1C3=O`, the MIC amounted to 8 µg/mL (≈ 24.2 µM) in [1]; 8 µg/mL (≈ 24.2 µM) in the experiment on Listeria monocytogenes; 64 µg/mL (≈ 194 µM) in [2]; 16 µg/mL (≈ 48.4 µM) in the experiment with Bacillus cereus; 32 µg/mL (≈ 96.9 µM) with Micrococcus luteus; 16 µg/mL (≈ 48.4 µM) in the experiment with Staphylococcus aureus [3]. Also, the MIC in the experiment on Staphylococcus aureus [4] is 8 µg/mL (≈ 24.2 µM); in the experiment with Pseudomonas aeruginosa, more than 128 µg/mL; in the experiment with Bacillus subtilis, 16 µg/mL (≈ 48.4 µM); with Staphylococcus aureus [5], 16 µg/mL (≈ 48.4 µM); with Staphylococcus aureus [6], 8 µg/mL (≈ 24.2 µM); with Staphylococcus aureus [7] it was 8 µg/mL (≈ 24.2 µM). In addition, the minimum inhibitory concentration (MIC) in the experiment on Escherichia coli was more than 128 µg/mL.

Take `CC1(C)S[C@@H]2[C@H](NC(=O)[C@H](N)c3ccccc3)C(=O)N2[C@H]1C(=O)O` [AMPICILLIN]: the MIC is 1 µg/mL (≈ 2.86 µM) in experiment [1]; 0.03 µg/mL (≈ 0.0859 µM) with Listeria monocytogenes; 64 µg/mL (≈ 183 µM) in experiment [2]; 16 µg/mL (≈ 45.8 µM) with Bacillus cereus; 0.03 µg/mL (≈ 0.0859 µM) in the experiment with Micrococcus luteus; 8 µg/mL (≈ 22.9 µM) in the experiment on Staphylococcus aureus [3]. Also, the MIC in the experiment with Staphylococcus aureus [4] was 0.03 µg/mL (≈ 0.0859 µM); in the experiment with Pseudomonas aeruginosa, 2 µg/mL (≈ 5.72 µM); in the experiment on Bacillus subtilis, 0.03 µg/mL (≈ 0.0859 µM); with Staphylococcus aureus [6], 8 µg/mL (≈ 22.9 µM); in the experiment on Staphylococcus aureus [7], 4 µg/mL (≈ 11.4 µM).

For `NC[C@H]1O[C@H](O[C@H]2[C@H](O)[C@@H](O[C@H]3O[C@H](CO)[C@@H](O)[C@H](N)[C@H]3O)[C@H](N)C[C@@H]2N)[C@H](O)[C@@H](O)[C@@H]1O` [KANAMYCIN], the minimum inhibitory concentration (MIC) in experiment [1] is 1 µg/mL (≈ 2.06 µM); in the experiment with Listeria monocytogenes, 1 µg/mL (≈ 2.06 µM); in [2] it was 0.25 µg/mL (≈ 0.516 µM); in the experiment on Bacillus cereus, 2 µg/mL (≈ 4.13 µM); in the experiment with Micrococcus luteus, 8 µg/mL (≈ 16.5 µM); in the experiment with Staphylococcus aureus [3], more than 128 µg/mL. Also, the MIC with Staphylococcus aureus [4] is 8 µg/mL (≈ 16.5 µM); in the experiment with Pseudomonas aeruginosa, 8 µg/mL (≈ 16.5 µM); with Bacillus subtilis it was 0.5 µg/mL (≈ 1.03 µM); in the experiment on Staphylococcus aureus [5], 128 µg/mL (≈ 264 µM); in the experiment on Staphylococcus aureus [6] it was more than 128 µg/mL; in the experiment on Staphylococcus aureus [7], more than 128 µg/mL. Besides, in the experiment with Escherichia coli, the minimum inhibitory concentration (MIC) was determined as 8 µg/mL (≈ 16.5 µM).

The record behind these values is ChEMBL document CHEMBL5120847, “Enceleamycins A-C, Furo-Naphthoquinones from Amycolatopsis sp. MCC0218: Isolation, Structure Elucidation, and Antimicrobial Activity” (2022).
